{"source": "paper PMC9150124", "about": "“Design of a Potent, Selective, and Brain-Penetrant Inhibitor of Wnt-Deactivating Enzyme Notum by Optimization of a Crystallographic Fragment Hit” (Journal of Medicinal Chemistry, 2022)", "assay_in_all_cases": "SelectScreen kinase profiling, SSBK ZLyte SP Technology", "format_in_all_cases": "biochemical", "key": {"[1]": {"target": "kinase named in conditions (Homo sapiens, UniProt P07949, A883F)", "details": "RET A883F, 10 μM", "procedure": "(§1) Kinase selectivity screening was performed by Thermo Fisher Scientific (Paisley, U.K.) in their SelectScreen Biochemical Kinase Profiling Service. Assay information and data are presented in the Supporting Information.\n(§2) Kinase selectivity screening was performed by ThermoFisher Scientific (Paisley, U.K.) in their SelectScreenTM\n(§3) Biochemical Kinase Profiling service ."}, "[2]": {"target": "kinase named in conditions (Homo sapiens, UniProt P51812)", "details": "RPS6KA3 (RSK2), 10 μM", "procedure": "as §1, §2, §3"}, "[3]": {"target": "kinase named in conditions (Homo sapiens, UniProt Q9H4B4)", "details": "PLK3, 10 μM", "procedure": "as §1, §2, §3"}, "[4]": {"target": "kinase named in conditions (Homo sapiens, UniProt P21802)", "sequence (P21802 22-821)": "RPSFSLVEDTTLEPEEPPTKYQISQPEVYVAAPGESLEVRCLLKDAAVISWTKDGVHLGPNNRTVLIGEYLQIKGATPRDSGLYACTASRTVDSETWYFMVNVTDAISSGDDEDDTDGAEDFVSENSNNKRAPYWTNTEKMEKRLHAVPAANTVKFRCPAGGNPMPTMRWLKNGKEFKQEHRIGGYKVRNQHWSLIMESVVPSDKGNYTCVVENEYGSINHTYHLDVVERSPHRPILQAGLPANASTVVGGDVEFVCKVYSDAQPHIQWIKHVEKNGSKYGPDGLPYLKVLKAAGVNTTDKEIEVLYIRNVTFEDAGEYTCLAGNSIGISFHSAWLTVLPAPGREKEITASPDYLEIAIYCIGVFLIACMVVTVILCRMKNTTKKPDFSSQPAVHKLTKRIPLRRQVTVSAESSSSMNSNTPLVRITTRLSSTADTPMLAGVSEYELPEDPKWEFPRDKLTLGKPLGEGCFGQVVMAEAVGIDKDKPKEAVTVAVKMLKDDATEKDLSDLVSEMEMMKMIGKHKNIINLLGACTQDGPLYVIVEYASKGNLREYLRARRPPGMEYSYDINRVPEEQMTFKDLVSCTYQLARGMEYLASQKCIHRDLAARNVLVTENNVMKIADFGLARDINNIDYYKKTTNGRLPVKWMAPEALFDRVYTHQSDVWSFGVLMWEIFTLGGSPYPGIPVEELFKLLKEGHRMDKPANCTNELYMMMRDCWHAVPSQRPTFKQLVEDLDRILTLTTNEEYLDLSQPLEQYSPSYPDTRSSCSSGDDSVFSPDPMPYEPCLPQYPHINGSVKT", "details": "FGFR2, 10 μM", "procedure": "as §1, §2, §3"}, "[5]": {"target": "kinase named in conditions (Homo sapiens, UniProt P49761)", "sequence (P49761 whole entry)": "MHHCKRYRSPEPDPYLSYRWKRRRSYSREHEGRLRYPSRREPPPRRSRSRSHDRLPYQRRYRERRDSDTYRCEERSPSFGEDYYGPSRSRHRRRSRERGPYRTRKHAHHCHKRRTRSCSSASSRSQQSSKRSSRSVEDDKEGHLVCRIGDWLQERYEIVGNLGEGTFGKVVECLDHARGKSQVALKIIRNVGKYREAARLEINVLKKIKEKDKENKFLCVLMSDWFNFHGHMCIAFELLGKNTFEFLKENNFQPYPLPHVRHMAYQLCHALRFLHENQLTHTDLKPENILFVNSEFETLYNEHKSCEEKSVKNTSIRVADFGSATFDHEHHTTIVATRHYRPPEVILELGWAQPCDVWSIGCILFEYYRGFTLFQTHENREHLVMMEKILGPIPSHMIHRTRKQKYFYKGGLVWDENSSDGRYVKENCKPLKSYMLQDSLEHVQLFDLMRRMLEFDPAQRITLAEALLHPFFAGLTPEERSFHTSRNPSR", "details": "CLK3, 10 μM", "procedure": "as §1, §2, §3"}, "[6]": {"target": "kinase named in conditions (Homo sapiens, UniProt P43403)", "sequence (P43403 whole entry)": "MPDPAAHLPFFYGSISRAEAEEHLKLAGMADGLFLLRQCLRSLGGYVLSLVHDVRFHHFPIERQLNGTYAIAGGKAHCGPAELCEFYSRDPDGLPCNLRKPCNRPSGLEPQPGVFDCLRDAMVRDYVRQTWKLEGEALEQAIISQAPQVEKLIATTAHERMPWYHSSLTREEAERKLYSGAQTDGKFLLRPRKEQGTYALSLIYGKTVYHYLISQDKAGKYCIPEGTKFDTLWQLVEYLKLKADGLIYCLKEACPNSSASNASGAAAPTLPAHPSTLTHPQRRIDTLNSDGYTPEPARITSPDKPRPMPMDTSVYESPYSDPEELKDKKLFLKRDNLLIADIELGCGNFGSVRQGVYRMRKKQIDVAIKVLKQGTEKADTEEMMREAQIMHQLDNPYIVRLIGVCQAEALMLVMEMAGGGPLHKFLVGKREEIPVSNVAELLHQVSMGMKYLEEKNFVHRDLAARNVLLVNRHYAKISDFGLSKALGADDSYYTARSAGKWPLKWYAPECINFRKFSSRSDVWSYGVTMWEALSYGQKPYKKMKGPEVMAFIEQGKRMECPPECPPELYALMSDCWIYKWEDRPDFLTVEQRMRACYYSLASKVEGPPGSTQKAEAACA", "details": "ZAP70, 10 μM", "procedure": "as §1, §2, §3"}, "[7]": {"target": "kinase named in conditions (Homo sapiens, UniProt Q9UQB9)", "details": "AURKC (Aurora C), 10 μM", "procedure": "as §1, §2, §3"}, "[8]": {"target": "kinase named in conditions (Homo sapiens, UniProt P41240)", "sequence (P41240 whole entry)": "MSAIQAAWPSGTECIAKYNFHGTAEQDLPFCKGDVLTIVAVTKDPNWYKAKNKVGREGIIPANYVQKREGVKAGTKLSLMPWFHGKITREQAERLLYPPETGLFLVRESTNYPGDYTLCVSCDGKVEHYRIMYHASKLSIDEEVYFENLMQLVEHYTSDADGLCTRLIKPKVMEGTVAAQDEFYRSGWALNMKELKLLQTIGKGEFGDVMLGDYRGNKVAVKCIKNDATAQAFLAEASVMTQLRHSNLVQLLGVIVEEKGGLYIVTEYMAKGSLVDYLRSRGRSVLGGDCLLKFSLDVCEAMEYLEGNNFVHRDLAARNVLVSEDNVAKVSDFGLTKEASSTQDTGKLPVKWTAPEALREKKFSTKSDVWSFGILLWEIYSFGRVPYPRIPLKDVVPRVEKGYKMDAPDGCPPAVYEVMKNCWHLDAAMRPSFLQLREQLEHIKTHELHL", "details": "CSK, 10 μM", "procedure": "as §1, §2, §3"}, "[9]": {"target": "kinase named in conditions (Homo sapiens, UniProt Q15759)", "sequence (Q15759 whole entry)": "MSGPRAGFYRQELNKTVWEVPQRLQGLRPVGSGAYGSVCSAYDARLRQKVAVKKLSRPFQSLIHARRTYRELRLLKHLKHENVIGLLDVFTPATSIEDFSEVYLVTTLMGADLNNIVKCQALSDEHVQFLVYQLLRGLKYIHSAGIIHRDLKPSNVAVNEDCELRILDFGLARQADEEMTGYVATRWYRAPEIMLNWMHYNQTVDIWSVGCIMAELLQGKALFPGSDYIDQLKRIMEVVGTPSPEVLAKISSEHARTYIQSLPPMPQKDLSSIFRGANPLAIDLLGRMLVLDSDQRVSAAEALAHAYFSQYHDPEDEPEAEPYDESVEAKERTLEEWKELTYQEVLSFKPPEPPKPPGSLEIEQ", "details": "MAPK11 (p38 beta), 10 μM", "procedure": "as §1, §2, §3"}, "[10]": {"target": "kinase named in conditions (Homo sapiens, UniProt Q07002)", "sequence (Q07002 whole entry)": "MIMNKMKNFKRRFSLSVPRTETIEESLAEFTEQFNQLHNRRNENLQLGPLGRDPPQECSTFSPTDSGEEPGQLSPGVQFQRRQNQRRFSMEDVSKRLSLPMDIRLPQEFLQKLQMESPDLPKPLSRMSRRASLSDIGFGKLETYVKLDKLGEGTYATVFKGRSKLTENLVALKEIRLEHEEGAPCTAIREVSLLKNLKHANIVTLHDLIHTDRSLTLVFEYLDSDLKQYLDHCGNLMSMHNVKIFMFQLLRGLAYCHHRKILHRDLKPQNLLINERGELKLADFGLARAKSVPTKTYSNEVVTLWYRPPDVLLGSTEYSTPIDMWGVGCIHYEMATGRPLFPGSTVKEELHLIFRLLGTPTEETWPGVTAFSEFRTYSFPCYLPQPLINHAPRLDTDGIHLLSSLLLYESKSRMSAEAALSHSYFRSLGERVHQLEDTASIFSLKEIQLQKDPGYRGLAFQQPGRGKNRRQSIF", "details": "CDK18/cyclin Y, 10 μM", "procedure": "as §1, §2, §3"}, "[11]": {"target": "kinase named in conditions (Homo sapiens, UniProt Q6VAB6)", "details": "KSR2, 10 μM", "procedure": "as §1, §2, §3"}, "[12]": {"target": "kinase named in conditions (Homo sapiens, UniProt P11309)", "sequence (P11309 whole entry)": "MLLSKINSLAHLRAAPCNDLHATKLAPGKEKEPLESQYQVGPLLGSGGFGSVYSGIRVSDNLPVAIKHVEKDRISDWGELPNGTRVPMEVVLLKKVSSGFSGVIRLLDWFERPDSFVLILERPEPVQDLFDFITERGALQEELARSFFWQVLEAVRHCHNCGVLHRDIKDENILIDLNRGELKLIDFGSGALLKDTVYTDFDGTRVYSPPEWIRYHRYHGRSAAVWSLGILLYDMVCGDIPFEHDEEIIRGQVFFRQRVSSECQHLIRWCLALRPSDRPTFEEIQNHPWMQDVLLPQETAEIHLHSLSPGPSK", "details": "PIM1, 10 μM", "procedure": "as §1, §2, §3"}, "[13]": {"target": "kinase named in conditions (Homo sapiens, UniProt P00533)", "details": "EGFR (ErbB1), 10 μM", "procedure": "as §1, §2, §3"}, "[14]": {"target": "kinase named in conditions (Homo sapiens, UniProt Q8IY84)", "details": "NIM1K, 10 μM", "procedure": "as §1, §2, §3"}, "[15]": {"target": "kinase named in conditions (Homo sapiens, UniProt P09619)", "details": "PDGFRB (PDGFR beta), 10 μM", "procedure": "as §1, §2, §3"}, "[16]": {"target": "kinase named in conditions (Homo sapiens, UniProt Q9HC98)", "details": "NEK6, 10 μM", "procedure": "as §1, §2, §3"}, "[17]": {"target": "kinase named in conditions (Homo sapiens, UniProt O43293)", "details": "DAPK3 (ZIPK), 10 μM", "procedure": "as §1, §2, §3"}, "[18]": {"target": "kinase named in conditions (Homo sapiens, UniProt Q9HCP0)", "sequence (Q9HCP0 whole entry)": "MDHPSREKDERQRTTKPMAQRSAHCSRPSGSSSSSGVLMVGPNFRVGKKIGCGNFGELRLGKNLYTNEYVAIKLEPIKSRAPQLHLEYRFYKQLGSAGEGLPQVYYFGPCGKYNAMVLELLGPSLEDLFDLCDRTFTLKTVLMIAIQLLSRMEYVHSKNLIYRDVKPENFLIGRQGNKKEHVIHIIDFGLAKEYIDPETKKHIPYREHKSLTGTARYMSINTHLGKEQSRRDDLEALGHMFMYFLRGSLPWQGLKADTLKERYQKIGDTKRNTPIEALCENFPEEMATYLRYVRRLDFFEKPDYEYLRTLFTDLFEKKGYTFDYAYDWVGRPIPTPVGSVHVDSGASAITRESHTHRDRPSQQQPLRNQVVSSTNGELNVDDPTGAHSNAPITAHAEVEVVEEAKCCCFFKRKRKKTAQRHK", "details": "CSNK1G1 (CK1 gamma 1), 10 μM", "procedure": "as §1, §2, §3"}, "[19]": {"target": "kinase named in conditions (Homo sapiens, UniProt P15056)", "details": "BRAF, 10 μM", "procedure": "as §1, §2, §3"}, "[20]": {"target": "kinase named in conditions (Homo sapiens, UniProt Q9UHD2)", "details": "TBK1, 10 μM", "procedure": "as §1, §2, §3"}, "[21]": {"target": "kinase named in conditions (Homo sapiens, UniProt P49759)", "sequence (P49759 whole entry)": "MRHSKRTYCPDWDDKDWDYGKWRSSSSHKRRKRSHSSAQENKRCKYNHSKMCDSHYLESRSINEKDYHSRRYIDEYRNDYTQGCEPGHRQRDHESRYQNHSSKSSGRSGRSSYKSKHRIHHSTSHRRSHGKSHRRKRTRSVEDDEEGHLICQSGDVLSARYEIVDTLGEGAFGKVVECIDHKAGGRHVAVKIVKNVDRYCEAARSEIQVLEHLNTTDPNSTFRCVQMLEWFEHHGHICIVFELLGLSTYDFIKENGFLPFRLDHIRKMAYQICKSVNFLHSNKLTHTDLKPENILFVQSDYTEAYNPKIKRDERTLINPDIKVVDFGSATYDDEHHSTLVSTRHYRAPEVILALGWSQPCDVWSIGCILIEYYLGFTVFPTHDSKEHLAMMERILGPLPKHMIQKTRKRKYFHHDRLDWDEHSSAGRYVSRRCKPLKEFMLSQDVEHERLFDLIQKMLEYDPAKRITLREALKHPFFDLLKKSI", "details": "CLK1, 10 μM", "procedure": "as §1, §2, §3"}, "[22]": {"target": "kinase named in conditions (Homo sapiens, UniProt O14920)", "details": "IKBKB (IKK beta), 10 μM", "procedure": "as §1, §2, §3"}, "[23]": {"target": "kinase named in conditions (Homo sapiens, UniProt P41743)", "details": "PRKCI (PKC iota), 10 μM", "procedure": "as §1, §2, §3"}, "[24]": {"target": "kinase named in conditions (Homo sapiens, UniProt Q52WX2)", "details": "SBK1, 10 μM", "procedure": "as §1, §2, §3"}, "[25]": {"target": "kinase named in conditions (Homo sapiens, UniProt P08631)", "details": "HCK, 10 μM", "procedure": "as §1, §2, §3"}, "[26]": {"target": "kinase named in conditions (Homo sapiens, UniProt P17948)", "details": "FLT1 (VEGFR1), 10 μM", "procedure": "as §1, §2, §3"}, "[27]": {"target": "kinase named in conditions (Homo sapiens, UniProt P00519, E255K)", "details": "ABL1 E255K, 10 μM", "procedure": "as §1, §2, §3"}, "[28]": {"target": "kinase named in conditions (Homo sapiens, UniProt P32298)", "sequence (P32298 whole entry)": "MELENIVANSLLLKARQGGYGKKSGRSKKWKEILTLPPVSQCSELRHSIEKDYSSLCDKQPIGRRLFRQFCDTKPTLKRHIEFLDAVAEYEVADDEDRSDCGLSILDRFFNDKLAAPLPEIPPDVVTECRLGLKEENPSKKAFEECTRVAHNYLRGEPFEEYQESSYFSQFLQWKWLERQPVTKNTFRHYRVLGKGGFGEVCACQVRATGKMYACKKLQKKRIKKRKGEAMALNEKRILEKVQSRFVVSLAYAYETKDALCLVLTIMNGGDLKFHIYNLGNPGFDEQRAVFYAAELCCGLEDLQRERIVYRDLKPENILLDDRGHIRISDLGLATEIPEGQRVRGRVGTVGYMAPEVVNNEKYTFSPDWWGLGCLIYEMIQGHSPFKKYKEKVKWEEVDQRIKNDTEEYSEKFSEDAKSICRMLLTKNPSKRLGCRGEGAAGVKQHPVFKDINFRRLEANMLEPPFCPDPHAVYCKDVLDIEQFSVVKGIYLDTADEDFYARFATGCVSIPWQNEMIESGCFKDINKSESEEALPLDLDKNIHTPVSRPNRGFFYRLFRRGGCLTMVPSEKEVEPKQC", "details": "GRK4, 10 μM", "procedure": "as §1, §2, §3"}, "[29]": {"target": "kinase named in conditions (Homo sapiens, UniProt Q96PY6)", "details": "NEK1, 10 μM", "procedure": "as §1, §2, §3"}, "[30]": {"target": "kinase named in conditions (Homo sapiens, UniProt Q14289)", "details": "PTK2B (FAK2), 10 μM", "procedure": "as §1, §2, §3"}, "[31]": {"target": "kinase named in conditions (Homo sapiens, UniProt O75676)", "details": "RPS6KA4 (MSK2), 10 μM", "procedure": "as §1, §2, §3"}, "[32]": {"target": "kinase named in conditions (Homo sapiens, UniProt P29317)", "details": "EPHA2, 10 μM", "procedure": "as §1, §2, §3"}, "[33]": {"target": "kinase named in conditions (Homo sapiens, UniProt P07949, S891A)", "details": "RET S891A, 10 μM", "procedure": "as §1, §2, §3"}, "[34]": {"target": "kinase named in conditions (Homo sapiens, UniProt Q9UM73)", "details": "ALK, 10 μM", "procedure": "as §1, §2, §3"}, "[35]": {"target": "kinase named in conditions (Homo sapiens, UniProt Q12851)", "details": "MAP4K2 (GCK), 10 μM", "procedure": "as §1, §2, §3"}}, "data": [{"smiles": "FC(F)(F)c1c(Cl)ccc(-n2ccnn2)c1Cl", "note": "[8l, 1-(2,4-Dichloro-3-(trifluoromethyl)phenyl)-1H-1,2,3-triazole]", "values": [{"measurement": "inhibition at 10 µM", "setting": "[1]", "value": 10, "unit": "%"}, {"measurement": "inhibition at 10 µM", "setting": "[2]", "value": -3, "unit": "%"}, {"measurement": "inhibition at 10 µM", "setting": "[3]", "value": 5, "unit": "%"}, {"measurement": "inhibition at 10 µM", "setting": "[4]", "value": 11, "unit": "%"}, {"measurement": "inhibition at 10 µM", "setting": "[5]", "value": 2, "unit": "%"}, {"measurement": "inhibition at 10 µM", "setting": "[6]", "value": 24, "unit": "%"}, {"measurement": "inhibition at 10 µM", "setting": "[7]", "value": 19, "unit": "%"}, {"measurement": "inhibition at 10 µM", "setting": "[8]", "value": 2, "unit": "%"}, {"measurement": "inhibition at 10 µM", "setting": "[9]", "value": 6, "unit": "%"}, {"measurement": "inhibition at 10 µM", "setting": "[10]", "value": 4, "unit": "%"}, {"measurement": "inhibition at 10 µM", "setting": "[11]", "value": 2, "unit": "%"}, {"measurement": "inhibition at 10 µM", "setting": "[12]", "value": 6, "unit": "%"}, {"measurement": "inhibition at 10 µM", "setting": "[13]", "value": 1, "unit": "%"}, {"measurement": "inhibition at 10 µM", "setting": "[14]", "value": 5, "unit": "%"}, {"measurement": "inhibition at 10 µM", "setting": "[15]", "value": 20, "unit": "%"}, {"measurement": "inhibition at 10 µM", "setting": "[16]", "value": 12, "unit": "%"}, {"measurement": "inhibition at 10 µM", "setting": "[17]", "value": 8, "unit": "%"}, {"measurement": "inhibition at 10 µM", "setting": "[18]", "value": 4, "unit": "%"}, {"measurement": "inhibition at 10 µM", "setting": "[19]", "value": 9, "unit": "%"}, {"measurement": "inhibition at 10 µM", "setting": "[20]", "value": 0, "unit": "%"}, {"measurement": "inhibition at 10 µM", "setting": "[21]", "value": 0, "unit": "%"}, {"measurement": "inhibition at 10 µM", "setting": "[22]", "value": -1, "unit": "%"}, {"measurement": "inhibition at 10 µM", "setting": "[23]", "value": 4, "unit": "%"}, {"measurement": "inhibition at 10 µM", "setting": "[24]", "value": 2, "unit": "%"}, {"measurement": "inhibition at 10 µM", "setting": "[25]", "value": 10, "unit": "%"}, {"measurement": "inhibition at 10 µM", "setting": "[26]", "value": 8, "unit": "%"}, {"measurement": "inhibition at 10 µM", "setting": "[27]", "value": 13, "unit": "%"}, {"measurement": "inhibition at 10 µM", "setting": "[28]", "value": -3, "unit": "%"}, {"measurement": "inhibition at 10 µM", "setting": "[29]", "value": 1, "unit": "%"}, {"measurement": "inhibition at 10 µM", "setting": "[30]", "value": 7, "unit": "%"}, {"measurement": "inhibition at 10 µM", "setting": "[31]", "value": 1, "unit": "%"}, {"measurement": "inhibition at 10 µM", "setting": "[32]", "value": 9, "unit": "%"}, {"measurement": "inhibition at 10 µM", "setting": "[33]", "value": 10, "unit": "%"}, {"measurement": "inhibition at 10 µM", "setting": "[34]", "value": 5, "unit": "%"}, {"measurement": "inhibition at 10 µM", "setting": "[35]", "value": -3, "unit": "%"}]}]}
